Data taken from BindingDB's records for doi:10.1074/jbc.M607913200 (Incyte, 2006).

These compounds were tested against T1, Tyrosine-protein phosphatase non-receptor type 1 [1-298] (Homo sapiens, UniProt P18031) (assay: Phosphatase Inhibition Assay). Details: not given.
T1 construct: 1-298
T1 sequence (P18031 whole entry): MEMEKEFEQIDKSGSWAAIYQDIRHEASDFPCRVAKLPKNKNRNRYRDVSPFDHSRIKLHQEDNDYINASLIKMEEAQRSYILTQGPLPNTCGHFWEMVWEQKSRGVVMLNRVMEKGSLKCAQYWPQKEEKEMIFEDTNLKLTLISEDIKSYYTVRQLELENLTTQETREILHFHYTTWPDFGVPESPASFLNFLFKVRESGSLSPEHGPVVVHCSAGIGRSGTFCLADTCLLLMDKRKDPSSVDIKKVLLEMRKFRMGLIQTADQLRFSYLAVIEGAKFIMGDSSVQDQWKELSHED

Row | Compound | IC50 [µM]
1 | Cc1cc(S(=O)(=O)N[C@@H](Cc2ccc(C3CC(=O)NS3(=O)=O)cc2)c2nc3ccccc3[nH]2)ccc1-c1ccccc1 (stereo partly drawn) [N-[(1S)-1-(1H-1,3-benzodiazol-2-yl)-2-[4-(1,1,3-trioxo-1,2-thiazolidin-5-yl)phenyl]ethyl]-3-methyl-4-phenylbenzene-1-sulfonamide] | 0.09
2 | O=C1CC(c2ccc(C[C@H](NS(=O)(=O)c3cccc(Oc4ccccc4)c3)c3nc4ccccc4[nH]3)cc2)S(=O)(=O)N1 (stereo partly drawn) [N-[(1S)-1-(1H-1,3-benzodiazol-2-yl)-2-[4-(1,1,3-trioxo-1,2-thiazolidin-5-yl)phenyl]ethyl]-3-phenoxybenzene-1-sulfonamide] | 0.11
3 | O=C(CCc1ccccc1)N[C@@H](Cc1ccc(C2CC(=O)NS2(=O)=O)cc1)c1nc2ccccc2[nH]1 (stereo partly drawn) [N-[(1S)-1-(1H-1,3-benzodiazol-2-yl)-2-[4-(1,1,3-trioxo-1,2-thiazolidin-5-yl)phenyl]ethyl]-3-phenylpropanamide] | 0.6
4 | CC(C)c1ccc(S(=O)(=O)N[C@@H](Cc2ccc(C3CC(=O)NS3(=O)=O)cc2)c2nc3ccccc3[nH]2)cc1 (stereo partly drawn) [N-[(1S)-1-(1H-1,3-benzodiazol-2-yl)-2-[4-(1,1,3-trioxo-1,2-thiazolidin-5-yl)phenyl]ethyl]-4-(propan-2-yl)benzene-1-sulfonamide] | 0.1
5 | O=C1CC(c2ccc(C[C@H](NS(=O)(=O)c3ccc(Oc4ccncc4)cc3)c3nc4ccccc4[nH]3)cc2)S(=O)(=O)N1 (stereo partly drawn) [N-[(1S)-1-(1H-1,3-benzodiazol-2-yl)-2-[4-(1,1,3-trioxo-1,2-thiazolidin-5-yl)phenyl]ethyl]-4-(pyridin-4-yloxy)benzene-1-sulfonamide] | 0.12
6 | O=C1CC(c2ccc(C[C@H](NS(=O)(=O)c3ccc(Br)c(C(F)(F)F)c3)c3nc4ccccc4[nH]3)cc2)S(=O)(=O)N1 (stereo partly drawn) [N-[(1S)-1-(1H-1,3-benzodiazol-2-yl)-2-[4-(1,1,3-trioxo-1,2-thiazolidin-5-yl)phenyl]ethyl]-4-bromo-3-(trifluoromethyl)benzene-1-sulfonamide] | 0.04
7 | Cc1ccc(S(=O)(=O)N[C@@H](Cc2ccc(C3CC(=O)NS3(=O)=O)cc2)c2nc3ccccc3[nH]2)cc1 (stereo partly drawn) [N-[(1S)-1-(1H-1,3-benzodiazol-2-yl)-2-[4-(1,1,3-trioxo-1,2-thiazolidin-5-yl)phenyl]ethyl]-4-methylbenzene-1-sulfonamide] | 0.08

Other lines, results leading:

Row | IC50 [µM] | Compound
8 | 2.6 | CC(=O)N[C@@H](Cc1ccc(C2CC(=O)NS2(=O)=O)cc1)c1nc2ccccc2[nH]1 (stereo partly drawn) [N-[(1S)-1-(1H-1,3-benzodiazol-2-yl)-2-[4-(1,1,3-trioxo-1,2-thiazolidin-5-yl)phenyl]ethyl]acetamide]
9 | 0.12 | O=C1CC(c2ccc(C[C@H](NS(=O)(=O)c3ccccc3)c3nc4ccccc4[nH]3)cc2)S(=O)(=O)N1 (stereo partly drawn) [N-[(1S)-1-(1H-1,3-benzodiazol-2-yl)-2-[4-(1,1,3-trioxo-1,2-thiazolidin-5-yl)phenyl]ethyl]benzenesulfonamide]

Same assay, conditions: pH 7; 22 °C

Row | IC50 [µM] | Compound
10 | 0.059 | CN1CCOc2cc(S(=O)(=O)N[C@@H](Cc3ccc([C@@H]4CC(=O)NS4(=O)=O)cc3)c3nc4ccccc4[nH]3)ccc21 [N-[(1S)-1-(1H-benzoimidazol-2-yl)-2-[4-[(5S)-1,1,3-trioxo-1,2-thiazolidin-5-yl]phenyl]ethyl]-7-methyl-10-oxa-7-azabicyclo[4.4.0]deca-2,4,11-triene-3-sulfonamide]
11 | 0.11 | O=C1C[C@@H](c2ccc(C[C@H](NC(=O)C(F)(F)F)c3nc4ccc(C(F)(F)F)cc4[nH]3)cc2)S(=O)(=O)N1 [N-{(1S)-2-[4-(1,1-dioxido-3-oxoisothiazolidin-5-yl)phenyl]-1-[5-(trifluoromethyl)-1H-benzimidazol-2-yl]ethyl}-2,2,2-trifluoroacetamide]
12 | 0.046 | O=C(Cc1ccc(C(F)(F)P(=O)(O)O)cc1)N[C@@H](Cc1ccccc1)C(=O)NCCc1ccc(C(F)(F)P(=O)(O)O)cc1 [[(4-{2-[(2S)-2-(1-{4-[difluoro(phosphono)methyl]phenyl}acetamido)-3-phenylpropanamido]ethyl}phenyl)difluoromethyl]phosphonic acid]
